Reference: ChEMBL document CHEMBL1201862, “PubChem BioAssay data set” (2004)
Structures can show the parent of a compound that is named as a salt. Calls of active or inactive are those of the source.

Experiments:
CAAX prenyl protease 1 = CAAX prenyl protease 1 (Saccharomyces cerevisiae S288c, UniProt P47154); test: yeast CAAX protease Ste24 inhibition – biochemical, S. cerevisiae, plate reader, cherry-pick, dose response (AID 488815)
CAAX prenyl protease 2 = biological target: T1, CAAX prenyl protease 2 (Saccharomyces cerevisiae S288c, UniProt Q03530); format: biochemical
T1 sequence (Q03530 whole entry): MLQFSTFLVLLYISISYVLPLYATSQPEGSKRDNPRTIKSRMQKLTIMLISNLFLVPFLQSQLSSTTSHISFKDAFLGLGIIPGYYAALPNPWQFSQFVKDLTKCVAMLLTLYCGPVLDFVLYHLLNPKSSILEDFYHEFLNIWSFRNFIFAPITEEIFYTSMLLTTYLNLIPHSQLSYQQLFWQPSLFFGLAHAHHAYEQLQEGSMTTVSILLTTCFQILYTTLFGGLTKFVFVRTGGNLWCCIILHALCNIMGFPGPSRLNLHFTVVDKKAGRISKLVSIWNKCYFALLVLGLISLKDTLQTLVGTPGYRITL

[1] = T. cruzi infection blockers in NIH3T3 cells – beta-gal luminescence, NIH3T3 host cells, confirmation (AID 2630); format: functional, cell-based; settings: Mus musculus
Cytochrome P450 3A4 = Cytochrome P450 3A4 (Homo sapiens, UniProt P08684);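 note: CYP3A4 tested as one member of a cytochrome P450 panel screen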
Chain of Cytochrome P450 3A4 (P08684 whole entry): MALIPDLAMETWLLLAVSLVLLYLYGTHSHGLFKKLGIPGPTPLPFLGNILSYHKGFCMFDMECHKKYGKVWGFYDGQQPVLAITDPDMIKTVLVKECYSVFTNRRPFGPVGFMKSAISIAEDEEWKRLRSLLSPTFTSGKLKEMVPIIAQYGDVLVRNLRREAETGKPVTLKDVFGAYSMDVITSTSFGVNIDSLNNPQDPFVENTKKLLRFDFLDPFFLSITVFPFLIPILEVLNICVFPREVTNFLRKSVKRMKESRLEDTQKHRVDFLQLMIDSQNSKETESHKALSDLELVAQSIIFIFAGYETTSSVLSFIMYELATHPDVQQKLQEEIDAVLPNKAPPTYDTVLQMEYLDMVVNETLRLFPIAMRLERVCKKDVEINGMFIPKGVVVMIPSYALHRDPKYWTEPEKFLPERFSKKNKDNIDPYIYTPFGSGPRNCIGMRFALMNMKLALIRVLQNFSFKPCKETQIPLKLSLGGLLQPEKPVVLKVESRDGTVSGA

Cytochrome P450 2C19 = Cytochrome P450 2C19 (Homo sapiens, UniProt P33261); test: Cytochrome panel assay with activity outcomes. Panel member name: p450-cyp2c19 Compounds with AC50 equal or less than 10 uM are considered active; format: functional; settings: read-out: AC50
Chain of Cytochrome P450 2C19 (P33261 whole entry): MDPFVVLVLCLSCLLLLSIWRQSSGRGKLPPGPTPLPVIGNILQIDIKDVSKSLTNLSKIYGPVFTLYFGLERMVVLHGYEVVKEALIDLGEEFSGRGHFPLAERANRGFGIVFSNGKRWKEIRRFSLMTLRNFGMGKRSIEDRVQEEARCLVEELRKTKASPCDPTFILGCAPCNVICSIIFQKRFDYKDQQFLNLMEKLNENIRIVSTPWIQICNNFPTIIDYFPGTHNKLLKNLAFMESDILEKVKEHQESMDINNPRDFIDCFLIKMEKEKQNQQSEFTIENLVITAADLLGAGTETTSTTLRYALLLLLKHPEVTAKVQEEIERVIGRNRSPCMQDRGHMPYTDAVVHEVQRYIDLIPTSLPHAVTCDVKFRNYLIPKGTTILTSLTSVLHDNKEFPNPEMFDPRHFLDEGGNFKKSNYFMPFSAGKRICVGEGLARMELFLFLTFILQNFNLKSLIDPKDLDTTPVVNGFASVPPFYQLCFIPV

Cytochrome P450 1A2 = biological target: T2, Cytochrome P450 1A2 (Homo sapiens, UniProt P05177);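 note: PubChem cytochrome P450 panel assay, CYP1A2 panel member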
T2 sequence (P05177 whole entry): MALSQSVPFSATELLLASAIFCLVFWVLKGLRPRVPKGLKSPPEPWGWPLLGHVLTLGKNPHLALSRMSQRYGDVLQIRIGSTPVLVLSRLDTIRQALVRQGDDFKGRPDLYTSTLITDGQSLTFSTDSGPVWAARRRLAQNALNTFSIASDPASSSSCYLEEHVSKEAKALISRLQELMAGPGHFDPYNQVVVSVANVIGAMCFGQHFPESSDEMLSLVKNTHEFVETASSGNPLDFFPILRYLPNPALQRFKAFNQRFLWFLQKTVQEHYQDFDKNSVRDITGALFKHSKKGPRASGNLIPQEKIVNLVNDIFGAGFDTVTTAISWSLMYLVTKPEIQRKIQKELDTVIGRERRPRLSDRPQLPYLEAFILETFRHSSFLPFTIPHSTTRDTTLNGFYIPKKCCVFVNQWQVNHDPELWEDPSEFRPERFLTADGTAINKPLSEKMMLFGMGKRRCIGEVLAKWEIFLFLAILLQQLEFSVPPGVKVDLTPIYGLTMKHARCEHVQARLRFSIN

Cytochrome P450 2C9 = Cytochrome P450 2C9 (Homo sapiens, UniProt P11712)
Chain of Cytochrome P450 2C9 (P11712 whole entry): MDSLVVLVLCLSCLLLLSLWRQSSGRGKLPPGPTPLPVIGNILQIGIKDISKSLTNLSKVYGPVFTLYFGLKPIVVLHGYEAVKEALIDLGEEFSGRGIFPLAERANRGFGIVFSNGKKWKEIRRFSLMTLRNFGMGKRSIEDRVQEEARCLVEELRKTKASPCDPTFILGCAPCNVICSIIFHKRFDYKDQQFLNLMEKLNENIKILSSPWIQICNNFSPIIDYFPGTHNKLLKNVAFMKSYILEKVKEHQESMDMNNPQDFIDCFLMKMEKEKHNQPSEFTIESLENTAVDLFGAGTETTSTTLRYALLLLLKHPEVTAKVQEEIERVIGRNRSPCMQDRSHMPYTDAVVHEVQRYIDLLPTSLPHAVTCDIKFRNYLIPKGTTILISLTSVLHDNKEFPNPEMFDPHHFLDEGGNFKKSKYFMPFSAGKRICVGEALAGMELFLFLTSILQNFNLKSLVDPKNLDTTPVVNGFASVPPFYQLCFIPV

HEK293 [2] = test: cells; settings: Homo sapiens
[3] = viability of PTEN-deleted HCT116 cells – cell-based, HCT116 PTEN knockout, dose response (AID 1047); format: functional;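 note: HCT116 colon tumor cells with PTEN knocked out; cells exposed to compound for 60 hours before readout; potency for loss of cell viability measured by luminescence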
[4] = viability of uninfected HEp-2 cells – cell-based, HTS, cytotoxicity control for RSV inhibitor project, dose response (AID 2410); format: functional; settings: human respiratory syncytial virus
[5] = THP-1 cell cytotoxicity, dose response, cytotoxicity control for non-replicating M. tuberculosis project (AID 489025); format: functional
[6] = Vero E6 cell cytotoxicity, dose response, cytotoxicity control for non-replicating M. tuberculosis project, secondary assay (AID 492998); format: functional, VeroE6; settings: Vero C1008
[7] = viability of HCT116 lacking mutant beta-catenin – cell-based, human colon tumor, dose response (AID 1045); format: functional;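 note: HCT116 colon tumor cells with beta catenin knocked out; cells exposed to compound for 60 hours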
[8] = HEK-293T cell viability reduction – luminescence, B-cell screen hits, cytotoxicity control for BCR NF-kB inhibitor project, dose response (AID 489021); format: functional, cell-based;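 note: HEK-293T cells carrying an NF-kB luciferase reporter; cells exposed to compound for about 14 hours before viability readout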
HEK293 [9] = test: cells; settings: Homo sapiens; remark: listed apart in the source
[10] = blockers of HIV-1 envelope-mediated cell-cell fusion – cherry-pick, dose response (AID 652057); format: functional, cell-based
[11] = HIV-1 AD8 envelope cell-cell fusion blockers – cherry-pick, dose response (AID 652062); format: functional, cell-based;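 note: luciferase signal from cell-cell fusion driven by HIV-1 clade B AD8 Env; potency is for inhibitors of fusion seen as a drop in luminescence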
[12] = off-target signal loss in HeLa-CEM21 co-culture – HeLa F-luc CTL cells, cherry-picked, counter-screen for HIV-1 Env fusion inhibitor project, dose response (AID 652040); format: functional, cell-based;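 note: potency for signal decrease marking cytotoxic or nonspecific inhibition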
[13] = biological target: T3, Microphthalmia-associated transcription factor (Homo sapiens, UniProt O75030); test: reducers of TRPM1 reporter luminescence, concentration series – cell-based, SK-MEL-5, cherry-picked, set 3, MITF inhibitor project, dose response (AID 493073); format: functional;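 note: SK-MEL-5 melanoma cells with luciferase driven by the MITF target TRPM1 promoter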
T3 sequence (O75030 whole entry): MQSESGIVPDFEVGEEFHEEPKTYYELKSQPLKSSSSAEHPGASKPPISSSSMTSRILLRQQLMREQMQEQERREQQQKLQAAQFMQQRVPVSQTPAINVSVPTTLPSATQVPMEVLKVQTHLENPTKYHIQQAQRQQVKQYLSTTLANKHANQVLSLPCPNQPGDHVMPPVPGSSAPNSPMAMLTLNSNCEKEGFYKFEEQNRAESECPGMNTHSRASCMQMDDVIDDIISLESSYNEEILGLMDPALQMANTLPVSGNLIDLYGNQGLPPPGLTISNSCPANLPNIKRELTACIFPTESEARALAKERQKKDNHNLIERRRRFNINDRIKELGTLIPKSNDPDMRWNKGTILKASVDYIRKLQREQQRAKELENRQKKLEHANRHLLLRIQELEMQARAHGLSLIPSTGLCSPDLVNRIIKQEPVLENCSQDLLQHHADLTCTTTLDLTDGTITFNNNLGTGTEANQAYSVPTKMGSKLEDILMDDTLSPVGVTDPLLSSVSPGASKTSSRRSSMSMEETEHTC

[14] = biological target: Dual specificity tyrosine-phosphorylation-regulated kinase 1A (Rattus norvegicus, UniProt Q63470); format: biochemical, Homo sapiens
[15] = blockers of HIV-1 ZM109 envelope-driven cell-cell fusion – HeLa effector, CEM target cells, luciferase, cherry-pick, dose response (AID 652058); format: functional, cell-based;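 note: luciferase signal from HIV-1 Env mediated cell-cell fusion of effector and target cells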
Jurkat = test: blockers of NF-kB activation in T cells – Jurkat, luciferase reporter, luminescence, B- and T-cell, dose response (AID 489004); format: functional, cell-based; settings: Homo sapiens;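 note: NF-kB luciferase reporter Jurkat cells stimulated with PMA plus ionomycin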
[16] = HEK-293T viability loss, compound-treated – cell-based, uHTS hits, cytotoxicity control for B/T-cell NF-kB inhibitor project, dose response (AID 489019); format: functional;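 note: IC50 reflects cytotoxicity as loss of cell viability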
[17] = blockade of melanocortin 4 receptor signaling – cell-based, plate reader, cherry pick, counter-screen for LGR2 antagonist project, dose response (AID 743444); format: functional;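 note: transfected HEK 293 cells stimulated with alpha-MSH peptide; potency of inhibitors of the alpha-MSH evoked signal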
Mu-type opioid receptor [18] = biological target: T4, Mu-type opioid receptor (Homo sapiens, UniProt P35372); test: SAR Analysis of Antagonists of the MOR Receptor using an Image-Based Assay - Set 2. [Related pubchem assays (depositor defined):AID1777, AID1785, AID1786, AID1966, AID2133, AID2136, AID2284, AID2285, AID2420]; format: functional
T4 sequence (P35372 whole entry): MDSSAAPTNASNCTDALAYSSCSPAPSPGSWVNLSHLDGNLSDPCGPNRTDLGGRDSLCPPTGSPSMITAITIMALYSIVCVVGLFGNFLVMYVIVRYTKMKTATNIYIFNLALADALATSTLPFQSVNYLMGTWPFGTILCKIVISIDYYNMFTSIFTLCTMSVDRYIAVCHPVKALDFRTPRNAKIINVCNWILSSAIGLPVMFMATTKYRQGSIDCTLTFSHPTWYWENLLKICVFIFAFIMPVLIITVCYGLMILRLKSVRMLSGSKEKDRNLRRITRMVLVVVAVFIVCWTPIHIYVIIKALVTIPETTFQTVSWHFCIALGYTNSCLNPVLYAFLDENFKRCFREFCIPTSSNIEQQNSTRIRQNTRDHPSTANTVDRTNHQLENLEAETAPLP

[19] = biological target: T5, Delta-type opioid receptor (Homo sapiens, UniProt P41143); test: SAR Analysis of Agonists of the DOR Receptor using an Image-Based Assay - Set 2. [Related pubchem assays (depositor defined):AID1777, AID1785, AID1786, AID1966, AID2133, AID2136, AID2284, AID2285, AID2370]; format: functional
T5 sequence (P41143 whole entry): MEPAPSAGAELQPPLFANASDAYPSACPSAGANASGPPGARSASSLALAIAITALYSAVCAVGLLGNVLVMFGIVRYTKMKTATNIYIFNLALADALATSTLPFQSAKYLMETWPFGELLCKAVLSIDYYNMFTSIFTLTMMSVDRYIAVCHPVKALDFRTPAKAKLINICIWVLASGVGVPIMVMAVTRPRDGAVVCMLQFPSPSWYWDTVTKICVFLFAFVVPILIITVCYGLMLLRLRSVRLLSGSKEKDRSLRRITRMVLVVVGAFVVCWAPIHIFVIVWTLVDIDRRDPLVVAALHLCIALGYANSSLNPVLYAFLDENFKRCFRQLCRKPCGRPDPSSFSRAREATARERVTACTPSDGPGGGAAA

[20] = biological target: T5, Delta-type opioid receptor; test: SAR Analysis of Antagonists of the DOR Receptor using an Image-Based Assay - Set 2. [Related pubchem assays (depositor defined):AID1777, AID1785, AID1786, AID1966, AID2133, AID2136, AID2284, AID2285, AID2357]; format: functional
Mu-type opioid receptor [21] = biological target: T4, Mu-type opioid receptor; test: SAR Analysis of Agonists of the MOR Receptor using an Image-Based Assay - Set 2. [Related pubchem assays (depositor defined):AID1777, AID1785, AID1786, AID1966, AID2133, AID2136, AID2284, AID2285, AID2352]; format: functional
[22] = biological target: T6, Kappa-type opioid receptor (Homo sapiens, UniProt P41145); test: SAR analysis of small molecule agonists of the kappa opioid receptor via a luminescent beta-arrestin assay - Set 2. [Related pubchem assays (depositor defined):AID1777, AID1785, AID1786, AID1966, AID2133, AID2136, AID2284, AID449737]; format: functional
T6 sequence (P41145 whole entry): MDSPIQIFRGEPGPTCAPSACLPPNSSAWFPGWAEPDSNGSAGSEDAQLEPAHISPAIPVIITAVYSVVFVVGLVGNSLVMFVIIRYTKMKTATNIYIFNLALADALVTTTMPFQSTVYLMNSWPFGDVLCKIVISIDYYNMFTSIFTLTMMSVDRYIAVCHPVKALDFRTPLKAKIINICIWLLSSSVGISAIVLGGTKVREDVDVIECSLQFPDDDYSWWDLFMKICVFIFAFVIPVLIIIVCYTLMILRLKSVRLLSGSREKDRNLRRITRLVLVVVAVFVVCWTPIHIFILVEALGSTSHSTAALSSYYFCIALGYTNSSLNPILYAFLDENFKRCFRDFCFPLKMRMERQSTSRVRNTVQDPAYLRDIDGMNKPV

[23] = biological target: T6, Kappa-type opioid receptor; test: SAR analysis of Antagonists of the Kappa Opioid Receptor (KOR) using an Image-Based Assay - Set 2. [Related pubchem assays (depositor defined):AID1777, AID1785, AID1786, AID1966, AID2133, AID2136, AID2284, AID2285, AID2348]; format: functional
[24] = biological target: T6, Kappa-type opioid receptor; test: SAR analysis of Agonists of the Kappa Opioid Receptor (KOR) using an Image-Based Assay - Set 2. [Related pubchem assays (depositor defined):AID1777, AID1786, AID1966, AID2133, AID2136, AID2284, AID2285, AID2359]; format: functional
[25] = biological target: Glucose-6-phosphate 1-dehydrogenase (Homo sapiens, UniProt P11413); test: inhibition of Homo sapiens G6PD, dose series – biochemical, fluorescence, selectivity assay for P. falciparum G6PD inhibitor project, dose response (AID 504792); format: functional
Chain of Glucose-6-phosphate 1-dehydrogenase (P11413 whole entry): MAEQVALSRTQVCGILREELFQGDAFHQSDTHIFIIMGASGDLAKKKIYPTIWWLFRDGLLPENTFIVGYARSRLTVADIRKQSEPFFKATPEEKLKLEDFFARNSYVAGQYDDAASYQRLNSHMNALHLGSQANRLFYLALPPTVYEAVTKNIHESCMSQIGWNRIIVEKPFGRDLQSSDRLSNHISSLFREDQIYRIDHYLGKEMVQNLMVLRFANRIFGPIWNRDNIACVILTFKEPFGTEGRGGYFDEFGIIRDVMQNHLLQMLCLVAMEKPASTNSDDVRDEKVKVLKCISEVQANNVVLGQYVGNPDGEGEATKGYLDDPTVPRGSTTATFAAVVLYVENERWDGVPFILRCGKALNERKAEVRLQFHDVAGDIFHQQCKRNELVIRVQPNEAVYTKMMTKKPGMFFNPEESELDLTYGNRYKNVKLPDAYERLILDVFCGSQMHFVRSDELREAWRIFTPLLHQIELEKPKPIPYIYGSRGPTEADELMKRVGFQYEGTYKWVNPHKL

[26] = biological target: Voltage-gated inwardly rectifying potassium channel KCNH2 (Homo sapiens, UniProt Q12809); settings: Potency;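 note: confirmatory quantitative high-throughput screen measuring inhibition of hERG channel activity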
Chain of Voltage-gated inwardly rectifying potassium channel KCNH2 (Q12809 whole entry): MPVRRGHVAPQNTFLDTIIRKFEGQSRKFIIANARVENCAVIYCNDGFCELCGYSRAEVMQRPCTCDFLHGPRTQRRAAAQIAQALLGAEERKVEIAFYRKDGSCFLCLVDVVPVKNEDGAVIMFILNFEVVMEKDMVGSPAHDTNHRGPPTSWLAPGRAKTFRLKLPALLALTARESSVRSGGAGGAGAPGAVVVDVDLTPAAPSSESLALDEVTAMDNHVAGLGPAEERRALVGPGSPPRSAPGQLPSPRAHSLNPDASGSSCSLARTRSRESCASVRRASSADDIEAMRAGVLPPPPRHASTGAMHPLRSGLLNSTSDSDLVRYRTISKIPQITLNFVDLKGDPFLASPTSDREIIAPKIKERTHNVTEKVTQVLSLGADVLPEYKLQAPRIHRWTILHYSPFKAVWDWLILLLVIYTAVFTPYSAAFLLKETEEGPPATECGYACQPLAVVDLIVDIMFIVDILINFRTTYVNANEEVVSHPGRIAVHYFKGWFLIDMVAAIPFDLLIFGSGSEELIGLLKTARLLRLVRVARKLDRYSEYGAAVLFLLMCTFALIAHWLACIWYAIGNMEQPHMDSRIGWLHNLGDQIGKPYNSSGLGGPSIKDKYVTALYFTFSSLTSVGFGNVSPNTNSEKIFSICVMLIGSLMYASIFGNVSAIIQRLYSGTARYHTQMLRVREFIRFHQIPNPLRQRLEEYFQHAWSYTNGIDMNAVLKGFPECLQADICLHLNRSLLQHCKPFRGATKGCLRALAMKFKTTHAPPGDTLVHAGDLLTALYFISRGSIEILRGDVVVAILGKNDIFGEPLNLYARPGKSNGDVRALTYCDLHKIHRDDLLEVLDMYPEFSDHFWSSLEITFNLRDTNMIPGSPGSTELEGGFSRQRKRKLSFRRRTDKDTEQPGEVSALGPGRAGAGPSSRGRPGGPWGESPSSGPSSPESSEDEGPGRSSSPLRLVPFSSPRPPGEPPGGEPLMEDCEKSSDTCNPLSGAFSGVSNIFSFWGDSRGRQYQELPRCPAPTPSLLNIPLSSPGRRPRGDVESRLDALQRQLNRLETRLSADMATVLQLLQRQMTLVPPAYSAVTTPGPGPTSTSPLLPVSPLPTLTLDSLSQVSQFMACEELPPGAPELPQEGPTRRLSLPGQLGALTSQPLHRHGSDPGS

Chain of CAAX prenyl protease 1 (P47154 whole entry): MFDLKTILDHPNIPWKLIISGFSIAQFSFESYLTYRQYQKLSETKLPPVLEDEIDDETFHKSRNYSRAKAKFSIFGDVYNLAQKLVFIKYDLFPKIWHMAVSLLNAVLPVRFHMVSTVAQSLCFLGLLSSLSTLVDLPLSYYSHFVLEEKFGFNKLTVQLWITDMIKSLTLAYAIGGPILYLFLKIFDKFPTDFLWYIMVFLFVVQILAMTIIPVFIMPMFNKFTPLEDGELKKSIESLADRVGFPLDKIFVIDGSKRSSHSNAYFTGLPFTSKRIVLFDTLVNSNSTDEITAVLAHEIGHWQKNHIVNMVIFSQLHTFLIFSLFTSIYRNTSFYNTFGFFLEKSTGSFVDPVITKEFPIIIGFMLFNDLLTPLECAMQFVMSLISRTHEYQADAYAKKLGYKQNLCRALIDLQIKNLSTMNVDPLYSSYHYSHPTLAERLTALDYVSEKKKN

NC(=O)CSC1=Nc2ccccc2C2=NC(c3ccccc3)C(=O)N12 (configuration not stated)
AC50 (CAAX prenyl protease 1): 5.41 µM (active)
AC50 (CAAX prenyl protease 2): 4.61 µM (active)

Cc1cc(C)n(CC(=O)N2CCCC(C(=O)c3cccc(OC(C)C)c3)C2)n1 (configuration not stated)
EC50 [1]: 14.1 µM (active)

CCCCC1(C)OC(=O)C(=Cc2ccc(N(C)C)cc2)C(=O)O1 (configuration not stated)
AC50 (Cytochrome P450 3A4): 1 µM (inconclusive)
AC50 (Cytochrome P450 2C19): 28.2 µM (inconclusive)
AC50 (Cytochrome P450 1A2): 14.1 µM (inconclusive)
AC50 (Cytochrome P450 2C9): inconclusive

CC1=CC(C)(C)Nc2ccc(OC(=O)CN3C(=O)c4ccccc4C3=O)cc21
EC50 (HEK293 [2]): > 59.6 µM (inactive)
EC50 [3]: 9.51 µM (active)
CC50 [4]: 6.94 µM (active)
CC50 [5]: 6.68 µM (active)
CC50 [6]: 13.6 µM (active)
EC50 [7]: 5.85 µM (active)
IC50 [8]: 58.6 µM (inactive)
EC50 (HEK293 [9]): > 59.6 µM (inactive)

Cc1ccc2nc(NC(=O)CCCC(=O)O)sc2c1
AC50 [10]: 1.42 µM (active)
AC50 [11]: 1.02 µM (active)
AC50 [12]: 2.82 µM (active)
AC50 [13]: 12.1 µM (active)
AC50 [14]: 4.63 µM (active)
AC50 [15]: 0.62 µM (active)
IC50 (Jurkat): 0.8 µM (active)
IC50 [16]: > 80 µM (inactive)
AC50 [17]: 44.1 µM (active)

Cc1ccc(CSc2nnc(-c3ccccn3)n2Cc2cccs2)cc1
IC50 (Mu-type opioid receptor [18]): > 32 µM (inactive)
EC50 [19]: > 32 µM (inactive)
IC50 [20]: > 32 µM (inactive)
EC50 (Mu-type opioid receptor [21]): > 32 µM (inactive)
EC50 [22]: 3.59 µM (active)
IC50 [23]: > 32 µM (inactive)
EC50 [24]: 2.38 µM (active)

C[N+]1([C@H](CO)Cc2c[nH]c3ccccc23)Cc2ccccc2C1.O=S(=O)([O-])c1ccccc1
AC50 (Cytochrome P450 1A2): inactive

Cc1[nH]c2ccccc2c1/C=N/NC(=O)c1cccc(S(=O)(=O)Nc2ccccc2Cl)c1
IC50 [25]: > 80 µM (inactive)

COc1ccc(NC(C)C(=O)N/N=C/c2cc(Br)ccc2OC)cc1 (configuration not stated)
IC50 [25]: > 80 µM (inactive)

CC(CCc1ccccc1)NCC(O)c1ccc(O)c(C(N)=O)c1 (configuration not stated) [LABETALOL HYDROCHLORIDE]
AC50 (CAAX prenyl protease 1): 7.7 µM (active)
AC50 (CAAX prenyl protease 2): 15.3 µM (active)
AC50 [26]: 15.8 µM (inconclusive)
